ChEMBL document CHEMBL1201862, “PubChem BioAssay data set” (2004)
Activity calls are given as the source filed them.

Experiments:
[1] = biological target: T1, Epstein-Barr nuclear antigen 1 (Epstein-Barr virus (strain B95-8) (HHV-4) (Human herpesvirus 4), UniProt P03211); test: EBNA-1 inhibitors, dose response, biochemical, fluorescence polarization, 1536-well (AID 2381); set-up: species or system human gammaherpesvirus 4;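 further: fluorescence polarization of a Cy5 DNA probe bound by EBNA-1 protein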
T1 sequence (P03211 whole entry): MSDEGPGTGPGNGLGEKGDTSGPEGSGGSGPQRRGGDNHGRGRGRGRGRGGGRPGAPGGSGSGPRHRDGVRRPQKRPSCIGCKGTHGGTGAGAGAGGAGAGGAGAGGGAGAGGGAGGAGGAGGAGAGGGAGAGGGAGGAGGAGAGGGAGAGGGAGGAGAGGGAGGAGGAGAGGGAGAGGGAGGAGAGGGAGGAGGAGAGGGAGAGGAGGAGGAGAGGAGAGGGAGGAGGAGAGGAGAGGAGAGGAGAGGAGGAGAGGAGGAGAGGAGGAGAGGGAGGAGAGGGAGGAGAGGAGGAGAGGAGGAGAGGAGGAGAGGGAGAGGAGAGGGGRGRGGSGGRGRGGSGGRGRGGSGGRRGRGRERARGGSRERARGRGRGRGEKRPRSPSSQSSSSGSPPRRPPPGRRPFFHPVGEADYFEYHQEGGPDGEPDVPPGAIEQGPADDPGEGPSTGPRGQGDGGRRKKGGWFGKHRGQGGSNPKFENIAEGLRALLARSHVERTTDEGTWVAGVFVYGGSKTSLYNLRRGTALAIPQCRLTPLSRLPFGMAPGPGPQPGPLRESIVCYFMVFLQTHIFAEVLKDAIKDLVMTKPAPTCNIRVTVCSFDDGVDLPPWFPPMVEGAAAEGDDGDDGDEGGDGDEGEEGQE

[2] = biological target: T2, Lytic switch protein BZLF1 (Epstein-Barr virus (strain B95-8) (HHV-4) (Human herpesvirus 4), UniProt P03206); test: EBV ZTA inhibitors, dose response, counter-screen for EBNA-1 inhibitor project, biochemical, fluorescence polarization, Epstein-Barr virus, 1536-well (AID 2377); set-up: species or system human gammaherpesvirus 4;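 further: fluorescence polarization of Cy5-labelled ZRE DNA probe bound by purified Zta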
T2 sequence (P03206 whole entry): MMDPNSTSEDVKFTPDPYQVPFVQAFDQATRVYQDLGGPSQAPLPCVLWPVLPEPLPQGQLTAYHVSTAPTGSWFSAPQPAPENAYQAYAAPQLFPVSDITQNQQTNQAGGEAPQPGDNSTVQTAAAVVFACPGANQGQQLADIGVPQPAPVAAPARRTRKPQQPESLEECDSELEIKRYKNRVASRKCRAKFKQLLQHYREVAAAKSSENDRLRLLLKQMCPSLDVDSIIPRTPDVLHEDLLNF

Cytochrome P450 2D6 = Cytochrome P450 2D6 (Homo sapiens, UniProt P10635);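 further: CYP2D6 member of a cytochrome P450 panel assay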
[3] = biological target: DNA dC->dU-editing enzyme APOBEC-3A (Homo sapiens, UniProt P31941); test: Dose Response confirmation of small molecule APOBEC3A DNA Deaminase Inhibitors via a fluorescence-based single-stranded DNA deaminase assay. [Related pubchem assays (depositor defined):AID493011, AID493024]; format: functional
[4] = biological target: DNA dC->dU-editing enzyme APOBEC-3G (Homo sapiens, UniProt Q9HC16); format: functional;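 further: Dose-response counterscreen measuring inhibition of APOBEC3G DNA deaminase activity, run while confirming APOBEC3A inhibitors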
[5] = biological target: T3, Mannose-6-phosphate isomerase (Homo sapiens, UniProt P34949); test: human PMI inhibitors, high substrate, primary screen, biochemical, fluorescence intensity, high mannose 6-phosphate (AID 1220)
T3 sequence (P34949 whole entry): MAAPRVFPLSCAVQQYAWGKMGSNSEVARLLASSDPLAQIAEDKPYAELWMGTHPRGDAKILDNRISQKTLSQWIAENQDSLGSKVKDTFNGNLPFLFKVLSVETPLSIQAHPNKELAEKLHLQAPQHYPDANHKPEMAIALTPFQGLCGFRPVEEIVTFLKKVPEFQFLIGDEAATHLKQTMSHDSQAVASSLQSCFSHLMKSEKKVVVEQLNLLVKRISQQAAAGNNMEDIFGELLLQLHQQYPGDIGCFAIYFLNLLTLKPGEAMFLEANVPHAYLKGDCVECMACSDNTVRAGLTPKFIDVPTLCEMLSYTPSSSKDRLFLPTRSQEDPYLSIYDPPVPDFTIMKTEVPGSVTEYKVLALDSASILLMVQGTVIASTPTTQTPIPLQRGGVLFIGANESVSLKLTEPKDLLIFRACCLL

CAAX prenyl protease 2 = biological target: T4, CAAX prenyl protease 2 (Saccharomyces cerevisiae S288c, UniProt Q03530); format: biochemical
T4 sequence (Q03530 whole entry): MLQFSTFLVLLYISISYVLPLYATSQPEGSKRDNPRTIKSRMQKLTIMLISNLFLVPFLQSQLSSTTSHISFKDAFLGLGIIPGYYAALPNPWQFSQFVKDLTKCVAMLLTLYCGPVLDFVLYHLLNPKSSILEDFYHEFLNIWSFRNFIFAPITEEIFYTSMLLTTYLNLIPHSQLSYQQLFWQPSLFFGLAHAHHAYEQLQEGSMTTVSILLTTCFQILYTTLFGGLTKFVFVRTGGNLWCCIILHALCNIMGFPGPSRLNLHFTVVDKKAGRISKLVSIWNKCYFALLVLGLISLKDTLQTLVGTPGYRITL

[6] = microbe, parasite or virus in culture; format: functional; conditions: Mycobacterium tuberculosis
BJ [7] = test: cells; format: functional, cell-based; conditions: Homo sapiens
BJ [8] = test: cytotoxicity toward Ras-transformed BJeLR fibroblasts, dose response, cell-based, alamar blue fluorescence, cherrypicked samples (AID 2631); format: functional; conditions: Homo sapiens;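 further: confirmatory dose-response assay in RAS-dependent BJ fibroblasts engineered with TERT, LT and ST, with cytotoxicity read by fluorescence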
BJ [9] = test: cytotoxicity toward BJ-TERT-LT-ST fibroblasts, dose response, cell-based, RAS-independent, luminescence (AID 1935); format: functional; conditions: Homo sapiens;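 further: BJ fibroblasts immortalized with TERT plus LT and ST oncogenes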
[10] = cytotoxicity toward DRD oncogenic fibroblasts, dose response, cell-based, non-viral oncogenic, luminescence (AID 1934); format: functional; conditions: Homo sapiens
INS1 = test: beta cell apoptosis inhibitors, cytokine rescue, dose response, luminescence, retest (AID 449756); format: functional, cell-based; conditions: Rattus norvegicus;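 further: cell death triggered by IL-1 beta plus TNF-alpha plus IFN-gamma mixture; protective hits raise ATP signal compared with cytokine alone wells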
BJ [11] = test: cytotoxicity toward BJ-TERT fibroblasts, dose response, cell-based, RAS-independent, luminescence (AID 1933); format: functional; conditions: Homo sapiens
[12] = inhibitors of intracellular T. cruzi replication, confirmation, NIH3T3 host cells, beta-gal luminescence (AID 2044); format: functional, cell-based;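 further: intracellular parasites grown in NIH/3T3 mouse fibroblasts as host cells; luminescent beta-galactosidase reporter signal from transgenic T. cruzi replicating inside host cells; inhibitors lower the luminescence signal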
[13] = cytotoxicity toward NIH3T3 fibroblasts, dose response, counter-screen, cell-based, ATP luminescence, mouse fibroblasts (AID 2010); format: functional;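 further: cells exposed to compound for about 90 hours before reading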
Prothrombin = Prothrombin (Homo sapiens, UniProt P00734); test: Thrombin 1536 HTS Dose Response Confirmation. [Related pubchem assays: 1046 (Thrombin 1536 HTS; hits were confirmed in this assay)]; format: functional
SN12K1 = test: cells; format: functional; conditions: Homo sapiens
P388 = test: cells; format: functional; conditions: Mus musculus
P388/ADR = test: cells; format: functional; conditions: Mus musculus
[14] = intracellular Trypanosoma cruzi inhibitors in host cells – cell-based, plate reader, cherry-pick samples, set 3, dose response (AID 651818); format: functional;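 further: compounds incubated with infected cells for about four days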

Chain of DNA dC->dU-editing enzyme APOBEC-3A (P31941 whole entry): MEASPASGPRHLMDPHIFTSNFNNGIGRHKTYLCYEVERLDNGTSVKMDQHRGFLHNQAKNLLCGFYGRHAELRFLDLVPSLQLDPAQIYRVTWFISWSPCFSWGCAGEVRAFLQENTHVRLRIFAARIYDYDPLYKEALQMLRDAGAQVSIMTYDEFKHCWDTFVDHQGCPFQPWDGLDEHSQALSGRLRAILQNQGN
Chain of DNA dC->dU-editing enzyme APOBEC-3G (Q9HC16 whole entry): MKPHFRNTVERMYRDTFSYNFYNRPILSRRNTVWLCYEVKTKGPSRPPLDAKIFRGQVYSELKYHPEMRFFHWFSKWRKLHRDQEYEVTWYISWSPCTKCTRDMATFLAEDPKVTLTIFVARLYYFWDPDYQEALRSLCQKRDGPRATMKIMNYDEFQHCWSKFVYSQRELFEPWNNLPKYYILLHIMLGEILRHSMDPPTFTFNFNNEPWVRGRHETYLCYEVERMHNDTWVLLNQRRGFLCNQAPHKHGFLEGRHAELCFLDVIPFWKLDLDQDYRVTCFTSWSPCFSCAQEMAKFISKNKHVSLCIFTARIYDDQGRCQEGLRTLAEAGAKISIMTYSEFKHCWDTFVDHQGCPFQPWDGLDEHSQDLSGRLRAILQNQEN
Chain of Cytochrome P450 2D6 (P10635 whole entry): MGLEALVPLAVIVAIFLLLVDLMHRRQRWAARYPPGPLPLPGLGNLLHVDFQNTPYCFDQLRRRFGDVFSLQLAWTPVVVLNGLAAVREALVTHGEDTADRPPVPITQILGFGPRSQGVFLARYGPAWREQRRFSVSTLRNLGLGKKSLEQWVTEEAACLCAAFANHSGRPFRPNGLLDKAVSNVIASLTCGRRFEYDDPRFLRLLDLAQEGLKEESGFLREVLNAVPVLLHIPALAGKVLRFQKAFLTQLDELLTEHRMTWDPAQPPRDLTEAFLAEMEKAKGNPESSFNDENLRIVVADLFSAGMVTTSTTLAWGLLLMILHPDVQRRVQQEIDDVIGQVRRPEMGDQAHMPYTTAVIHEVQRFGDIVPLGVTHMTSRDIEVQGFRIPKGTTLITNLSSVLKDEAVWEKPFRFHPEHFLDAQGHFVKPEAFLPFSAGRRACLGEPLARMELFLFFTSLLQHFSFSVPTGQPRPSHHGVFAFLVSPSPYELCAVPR

COc1ccccc1Nc1ncc(C(=O)Nc2ccc(OC)c(OC)c2)c2ccccc12
IC50 [1]: 16.5 µM (not active) | IC50 [2]: > 111 µM (not active)

CCCC(=O)Nc1ccc2nc(SCC(=O)Nc3ccc(N4CCOCC4)c(Cl)c3)sc2c1
IC50 [1]: > 148 µM (not active) | AC50 (Cytochrome P450 2D6): 10 µM (inconclusive) | IC50 [3]: 4.33 µM (active) | IC50 [4]: 4.72 µM (active) | IC50 [2]: > 111 µM (not active)

Cc1ccc(NC(=O)CN(C)C(=O)COc2cccc3cccnc23)cc1
IC50 [5]: 44.5 µM (active)

COc1ccc(CN2CCN(C(c3ccc(F)cc3)c3ccc(F)cc3)CC2)c(OC)c1OC
AC50 (CAAX prenyl protease 2): 4.67 µM (active) | CC50 [6]: > 40 µM (active)

O=C(Cc1ccc(Cl)cc1)c1c[nH]c(C(=O)NCc2cccnc2)c1
EC50 (BJ [7]): 6.96 µM (active) | EC50 (BJ [8]): 4.8 µM (active) | EC50 (BJ [9]): > 150 µM (inconclusive) | EC50 [10]: > 150 µM (not active) | AC50 (INS1): 907 nM (active) | EC50 (BJ [11]): 11.3 µM (inconclusive)

CNC(=S)NNC(=O)c1sccc1OCc1cccc(C(F)(F)F)c1
IC50 [1]: 9.69 µM (active) | IC50 [2]: > 111 µM (not active)

CCOC(=O)c1oc2ccccc2c1NC(=O)c1ccc(S(=O)(=O)N(C)C)cc1
IC50 [1]: 16.6 µM (not active) | IC50 [2]: > 111 µM (not active)

CCN(Cc1ccncc1)Cc1c(O)ccc2cc(Br)ccc12
IC50 [5]: > 50 µM (not active)

Cc1ccc(-c2nc3ccccc3[nH]2)cc1NC(=O)c1sc2cc(Cl)ccc2c1Cl
IC50 [1]: 13 µM (not active) | EC50 [12]: 642 nM (active) | EC50 [13]: > 60 µM (inconclusive) | IC50 [2]: > 111 µM (not active)

COc1cc(CN2CCN(c3ccccc3F)CC2)c([N+](=O)[O-])cc1OC
IC50 [5]: > 50 µM (not active)

Cc1ccc(NS(=O)(=O)c2ccc(NC(=O)CN(c3cc([N+](=O)[O-])ccc3C)S(C)(=O)=O)cc2)c(C)c1
EC50 (BJ [7]): > 75 µM (not active) | CC50 [6]: 4.92 µM (active) | EC50 (BJ [8]): > 133 µM (inactive) | EC50 (BJ [9]): > 150 µM (inconclusive) | EC50 [10]: > 75 µM (not active) | AC50 (INS1): 1490 nM (active) | EC50 (BJ [11]): 39.7 µM (active)

CCn1c(SCC(N)=O)nnc1C(C)C
IC50 (Prothrombin): > 50 µM (not active)

Cc1ccc(OCC(=O)N2CCC(N3CCCCCC3)CC2)cc1
IC50 (Prothrombin): > 50 µM (not active)

O=C(CSc1nnc(-c2ccccc2)c(-c2ccccc2)n1)Nc1ccc(Br)cn1
IC50 (Prothrombin): > 50 µM (inconclusive)

O=C(Nc1ccc(N2CCOCC2)cc1)C1CCN(S(=O)(=O)c2ccccc2F)CC1
IC50 (Prothrombin): > 50 µM (not active)

CN1CCN(P2(=S)Oc3ccc4ccccc4c3-c3c(ccc4ccccc34)O2)CC1
GI50 (SN12K1): 21.8 µM (inactive) | GI50 (P388): 24.1 µM (inactive) | GI50 (P388/ADR): 26.2 µM (inactive)

CC(C)=CCC/C(C)=C/CCC1(C)C=Cc2c(c3ccccc3oc2=O)O1 (stereo unspecified)
GI50 (SN12K1): 16.9 µM (inactive) | GI50 (P388): 15.2 µM (inactive) | GI50 (P388/ADR): 20.2 µM (inactive)

COC1=C2CC(C)CC(OC)C(O)C(C)/C=C(\C)C(OC(N)=O)C(OC)/C=C\C=C(/C)C(=O)NC(=C(/C=N/C(C)(C)C)C1=O)C2=O (stereo unspecified)
GI50 (SN12K1): 3.64 µM (inactive) | GI50 (P388): 2.33 µM (inactive) | GI50 (P388/ADR): 3.72 µM (inactive)

CCOC(=O)/C=C/c1c(C)[nH]c(=O)[nH]c1=O
GI50 (SN12K1): > 250 µM (inactive) | GI50 (P388): 158 µM (inactive) | GI50 (P388/ADR): 169 µM (inactive)

C/C(=N\NS(=O)(=O)c1ccccc1)c1ccccc1
GI50 (SN12K1): > 100 µM (inactive) | GI50 (P388): > 100 µM (inactive) | GI50 (P388/ADR): > 100 µM (inactive)

Cc1ccc(S(=O)(=O)Nc2ccc3c(c2)CC(=O)N([C@H](C)CO)C[C@@H](C)[C@H](CN(C)Cc2ccc(C(=O)Nc4ccccc4N)cc2)O3)cc1
AC50 [14]: 2.94 µM (active)

C[C@@H]1CN([C@H](C)CO)C(=O)Cc2cc(NC(=O)c3ccncc3)ccc2O[C@H]1CN(C)Cc1ccc(-c2ccccc2)cc1
AC50 [14]: 3.08 µM (active)

C[C@@H]1CN([C@H](C)CO)C(=O)c2cccc(NC(=O)c3nc4ccccc4s3)c2O[C@H]1CN(C)Cc1ccc(C(=O)Nc2ccccc2N)cc1
AC50 [14]: 1.49 µM (active)

C[C@@H]1CN([C@@H](C)CO)C(=O)c2cc(NC(=O)Nc3ccc(C(F)(F)F)cc3)ccc2O[C@@H]1CN(C)S(=O)(=O)c1ccc(F)cc1
AC50 [14]: 4.21 µM (active)

C[C@@H]1CN([C@H](C)CO)C(=O)Cc2cc(NS(=O)(=O)c3ccccc3)ccc2O[C@@H]1CN(C)Cc1ccc(Oc2ccccc2)cc1
AC50 [14]: 4.87 µM (active)

Cc1ccc(N2CC(C(=O)N/N=C/c3cccc([N+](=O)[O-])c3)CC2=O)cc1 (stereo unspecified)
IC50 (Prothrombin): > 50 µM (not active)

C=C(C)C(=O)O[C@H]1CC2=C[C@@H](C[C@@]3(C)O[C@@H]3[C@H]3OC(=O)C(=C)[C@@H]31)OC2=O [ELEPHANTOPIN]
GI50 (SN12K1): 4.73 µM (inactive) | GI50 (P388): 0.124 µM (active) | GI50 (P388/ADR): 0.166 µM (active)
